Source: patent US8324166B2, “Neuroprotection using NAP-like and SAL-like peptide mimetics” (Ramot at Tel-Aviv University, Ltd., priority 2007, dated 2012)
Where “and” joins values, the source holds several entries; their conditions need not be identical. Equal entries are not always repeated. Entries after “also recorded” stand apart in the source; their conditions may differ.

Experiments:
[1] = target: VQIVYK (peptide derived from third microtubule binding repeat of tau) (Homo sapiens, UniProt P10636); assay: In vitro VQIVYK (tau-like) aggregation assay, Thioflavin S; format: biochemical; conditions: peptides 10^−17 M -10^−9 M; 100 μM VQIVYK, polyglutamate 250 μM, MOPS pH 6.5, 7 days; compared with NAP
Procedure: VQIVYK aggregation: Tau is a highly soluble protein. The unfolded protein lacks a defined 3D structure. Its main role is stabilization of microtubules in neuronal axons. Tau contains three or four microtubule binding repeats. ^306VQIVYK^311 is a peptide derived from the beginning of the third microtubule binding repeat of tau, which is present in all tau variants.
In vitro aggregation assay was performed in the presence of polyglutamic acid (or heparin), VQIVYK aggregates were further detected by Thioflavin S (excitation 485 nm and emission 535) with emission intensity greatly increasing.
First, different concentrations of polyglutamic acid (0,100 μM, 250 μM, 400 μM) VQIVYK and either […] (NH4Ac) 50 mM pH 6.5 or MOPS 20 mM pH 6.5 and Thioflavin S 5 μM were mixed together and incubated at room temperature. The extent of aggregation was read at excitation 485 nm and emission 535 nm using the infinite 200 system with the Magellan program.
In order to avoid reading self peptide aggregation as VQIVYK aggregation, for each peptide concentration, the fluorescence of the peptide solution without VQIVYK was subtracted from the fluorescence of each peptide concentration containing VQIVYK.

[2] = test system: rTg(tauP301L)4510 mouse (Tau-Tg); assay: Brain-Body weight ratio in Tau transgenic mice; format: in vivo
Procedure: (§1) The experiment included three groups: Tau-Tg female mice, 10-month-old, treated by intranasal administration of NAT 2 μg/5 μl/mouse/day (n=5) or vehicle (SW/mouse/day) (n=6), and as control, non-Tg female littermates treated by vehicle (SW/mouse/day) (n=7).
Treatment started at 9 months of age and continued daily for a period of 5 weeks. At each test NAT was applied 1 h before the test begun.
All mice were weighed at the beginning and end of the experiment and whole brain weight was measured before the brain dissection.
All mice were weighed before first drug application and again before the dissection (while still alive). […] Whole brain was weighed before the brain sections were separated and no significant statistical differences between the groups were found. However, Brain-Body weight ratio may be used to measure brain mass decrease possibly indicating neuronal degradation (Bassan et al., (2009) J Matern Fetal Neonatal Med, 1-6).

[3] = test system: ADNP; assay: Nuclear ADNP level in cerebral cortex by immunoblotting; format: in vivo, mouse; conditions: NAT vs vehicle treated TAU-Tg, p=0.0028, listed as NAT
Procedure: as §1
Mouse brain tissue was rapidly dissected and quickly separated into four different brain sections: cortex, hippocampus, cerebellum and rest of the brain. Brains were kept frozen at −80° C. for further biochemical analysis. Total levels of nuclear ADNP were analyzed by immunoblotting. Cerebral cortex samples (˜50 mg each) were homogenized and cytoplasmic and nucleus proteins were separated using lysis buffer (20 mM TRIS HCl pH […], 0.1 mM EDTA, 1.5 mM MgCl2, 0.2% NP-40) and extraction buffer (10 mM TRIS HCl pH 7.7, 0.1 mM EDTA, 1.5 mM MgCl2, 20% Glycerol, 1.61 gr NaCl). Protein amount was estimated and corrected by using the Bradford assay and then separated by electrophoresis on 12% polyacrylamide gels containing SDS (Shiryaev et al., (2009) Neurobiol Dis, 34, 381-388). Western blot analyses were performed by applying brain protein samples onto two gels. Each gel had sample representation from each one of the three groups. […] Protein bands on hyperfilm were quantified using photochromatography analysis. The ADNP amount in each band was calculated as its percentage from the total amount of all bands. […]

[4] = test system: neurons in mixed neuroglial cultures intoxicated with beta-amyloid 1-42; assay: MAP2 assay: neuronal survival in mixed neuroglial cultures following beta-amyloid intoxication; format: cell-based, rat
Procedure: Newborn rats were used to prepare cerebral cortical astrocytes cell cultures as described above. After suspending the cells in D1, they were centrifuged at 100 g for 5 minutes and the supernatant discarded. The cell pellet was resuspended in solution D2 containing 5% heat inactivated horse serum (Biological Industries, Beit Haemek, Israel), 0.1% gentamycin, 0.1% penicillin-streptomycin-nystatin, 1% N3 (defined medium components essential for neuronal development in culture, (Romijn HJ, Brain Res., 254:583-9 (1981)]), 15 μg/ml 5′-fluoro-2-deoxyuridine (FUDR, Sigma, Rehovot, Israel), and 3 μg/ml uridine (Sigma, Rehovot, Israel) in DMEM. Cells were counted in a hemocytometer, diluted in D2 and 17,000 cells/well/96 well plate were seeded on 8-day-old astrocytes prepared as described above. The medium was changed the next day to D2 without FUDR and uridine. Cells were allowed to grow for one week at 37° C. 10% CO2 before experiments were performed.
Neuronal survival in neuroglial cultures following beta-amyloid intoxication was assayed using the neuron specific antibody, MAP2. […] The cells were incubated for 5 days in 10% CO2 at 37°C.
5 days after the addition of beta-amyloid and the peptide, the cells were fixed by removing the media from each well and the addition of cold methanol. The cells were left in the refrigerator overnight. The cells were immunostained with anti-MAP2 as previously described (Brooke S M et al., Neurosci. Lett., 267:21-4(1999)): the methanol was removed and the cells were washed 4 times with phosphate buffered saline (PBS). Blocking for non-specific antibody binding was performed by incubating the cells in 5% non-fat milk in PBS overnight at 4° C. The blocking solution was then removed and anti-MAP2(1:1000; Sigma, Rehovot, Israel) was added to each well. The cells were incubated for 30 minutes at room temperature, followed by 4 washes with PBS. Biotinylated anti-mouse IgG (1:200, Vector Laboratories, Burlingame, Calif., USA) was then added to each well, and the cells were incubated for 30 minutes at room temperature followed by 4 washes with PBS. The cells were incubated at room temperature for 30 minutes with the ABC reagent (Vector Laboratories, Burlingame, Calif., USA) prepared according to the manufacturer's protocol and then washed 4 times with PBS. ABTS reagent, prepared according to the manufacturer's protocol (Vector Laboratories, Burlingame, Calif., USA) was then added to each well and the cells were incubated for 20 minutes in the dark at room temperature. The plates were read in an ELISA plate reader at 405nm. As blanks, wells containing untreated cells and no primary antibody were used.

NATLSIHQ (synthetic NAP-like peptide)
inhibition of VQIVYK (tau) aggregation [1]: superior to NAP; also recorded: superior effect than NAPVSIPQ | protection from neurodegeneration (Brain-Body weight ratio) ([2]; TAU-Tg mice, intranasal NAT, listed as NAT): protected the brain from neurodegeneration; also recorded: protective effect | Brain-Body weight ratio ([2]; TAU-Tg+NAT, intranasal daily 5 weeks, mean and S.E., p=0.030 vs vehicle treated TAU-Tg): 0.0148+0.0009 | amount of nuclear ADNP protein [3]: difference between the NAT and vehicle treated TAU-Tg groups; also recorded: statistically significant increase | effective concentrations on neuronal survival: Neurons (25 μM beta-amyloid) ([4]; MAP2 assay, 5 days, tested 10^−19M to 10^−5M, significance vs negative control in cell): 10^−19 M and 10^−15 M and 10^−17 M and 10^−13 M | activity in neuroprotection assay ([4]; neuroglial cells, beta-amyloid): active | efficacy compared between peptides ([4]; survival of neuroglial cells): greater than that of STPTAIPQ
